Assay [1] deals with T1, 5-LO (Homo sapiens, UniProt P09917).
T1 construct: incubating a test compound with heparinised human blood; endogenous in cells; host or cells: blood cells in heparinised human blood
T1 sequence (P09917 1-674): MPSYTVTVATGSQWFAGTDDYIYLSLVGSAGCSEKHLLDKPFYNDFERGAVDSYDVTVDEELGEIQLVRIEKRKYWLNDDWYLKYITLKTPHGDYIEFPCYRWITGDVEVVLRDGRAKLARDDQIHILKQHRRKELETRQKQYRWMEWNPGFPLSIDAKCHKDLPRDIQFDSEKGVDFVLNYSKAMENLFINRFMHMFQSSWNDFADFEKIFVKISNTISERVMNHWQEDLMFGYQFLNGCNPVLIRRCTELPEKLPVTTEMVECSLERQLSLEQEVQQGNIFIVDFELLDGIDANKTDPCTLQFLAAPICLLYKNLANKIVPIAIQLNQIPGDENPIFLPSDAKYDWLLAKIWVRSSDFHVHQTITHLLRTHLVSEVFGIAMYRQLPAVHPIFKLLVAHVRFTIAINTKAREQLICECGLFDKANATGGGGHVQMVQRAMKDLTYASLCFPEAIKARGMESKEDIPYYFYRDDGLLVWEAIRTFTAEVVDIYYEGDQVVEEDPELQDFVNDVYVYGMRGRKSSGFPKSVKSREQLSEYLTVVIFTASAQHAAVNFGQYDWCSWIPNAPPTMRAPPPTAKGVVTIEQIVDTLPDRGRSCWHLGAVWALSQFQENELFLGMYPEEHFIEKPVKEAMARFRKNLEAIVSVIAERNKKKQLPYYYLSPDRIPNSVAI
Nature of the assay: test b) in vitro heparinised human blood, A23187 challenge, LTB4 radioimmunoassay. The class given is cell-based.
Experimental: b) An in vitro assay system involving incubating a test compound with heparinised human blood, prior to challenge with the calcium ionophore A23187 and then indirectly measuring the inhibitory effects on 5-LO by assaying the amount of LTB4 using the specific radioimmunoassay described by Carey and Forder (F. Carey and R. A. Forder, Brit. […] This test provides an indication of the effects of a test compound against 5-LO and also cyclooxygenase in the presence of blood cells and proteins. It permits the selectivity of the inhibitory effect on 5-LO or cyclooxygenase to be assessed.

Assay [2] deals with T2, cyclooxygenase (Homo sapiens, UniProt P23219).
T2 construct: incubating a test compound with heparinised human blood; endogenous in cells; host or cells: blood cells (platelets by own knowledge) in heparinised human blood
T2 sequence (P23219 24-599): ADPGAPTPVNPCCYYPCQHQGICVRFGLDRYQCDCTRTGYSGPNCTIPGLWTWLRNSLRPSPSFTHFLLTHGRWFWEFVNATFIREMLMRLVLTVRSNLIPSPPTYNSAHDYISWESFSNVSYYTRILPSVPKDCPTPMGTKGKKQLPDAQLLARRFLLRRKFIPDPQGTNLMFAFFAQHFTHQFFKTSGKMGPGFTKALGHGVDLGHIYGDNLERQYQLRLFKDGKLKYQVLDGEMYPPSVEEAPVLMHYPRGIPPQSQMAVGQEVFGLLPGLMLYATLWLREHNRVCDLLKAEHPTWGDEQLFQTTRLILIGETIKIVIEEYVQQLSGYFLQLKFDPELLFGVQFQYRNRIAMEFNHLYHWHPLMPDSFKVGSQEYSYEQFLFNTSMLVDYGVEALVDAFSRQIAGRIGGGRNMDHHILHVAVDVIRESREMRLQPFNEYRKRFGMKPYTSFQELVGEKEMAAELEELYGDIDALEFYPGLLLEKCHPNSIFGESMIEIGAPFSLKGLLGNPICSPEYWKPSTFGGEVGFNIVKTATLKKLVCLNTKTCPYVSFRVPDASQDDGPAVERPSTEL
Nature of the assay: test b) in vitro heparinised human blood, A23187 challenge, TxB2 radioimmunoassay. The class given is cell-based. Here is the method:
As stated previously, the heterocyclic derivatives of the formula I are inhibitors of the enzyme 5-LO.
b) An in vitro assay system involving incubating a test compound with heparinised human blood, prior to challenge with the calcium ionophore A23187 and then indirectly measuring the inhibitory effects on 5-LO by assaying the amount of LTB4 using the specific radioimmunoassay described by Carey and Forder (F. Carey and R. A. Forder, Brit. J. Pharmacol. 1985, 84, 34P) which involves the use of a protein-LTB4 conjugate produced using the procedure of Young et alia (Prostaglandins, 1983, 26(4), 605-613). The effects of a test compound on the enzyme cyclooxygenase (which is involved in the alternative metabolic pathway for arachidonic acid and gives rise to prostaglandins, thromboxanes and related metabolites) may be measured at the same time using the specific radioimmunoassay for thromboxane B2 (TxB2) described by Carey and Forder (see above). This test provides an indication of the effects of a test compound against 5-LO and also cyclooxygenase in the presence of blood cells and proteins. It permits the selectivity of the inhibitory effect on 5-LO or cyclooxygenase to be assessed.

The target of assay [3] is T3, 5-LO (Rattus norvegicus, UniProt P12527).
T3 construct: blood collection, heparinisation, challenge with A23187 and radioimmunoassay of LTB4 and TxB2; endogenous in cells
T3 sequence (P12527 1-673): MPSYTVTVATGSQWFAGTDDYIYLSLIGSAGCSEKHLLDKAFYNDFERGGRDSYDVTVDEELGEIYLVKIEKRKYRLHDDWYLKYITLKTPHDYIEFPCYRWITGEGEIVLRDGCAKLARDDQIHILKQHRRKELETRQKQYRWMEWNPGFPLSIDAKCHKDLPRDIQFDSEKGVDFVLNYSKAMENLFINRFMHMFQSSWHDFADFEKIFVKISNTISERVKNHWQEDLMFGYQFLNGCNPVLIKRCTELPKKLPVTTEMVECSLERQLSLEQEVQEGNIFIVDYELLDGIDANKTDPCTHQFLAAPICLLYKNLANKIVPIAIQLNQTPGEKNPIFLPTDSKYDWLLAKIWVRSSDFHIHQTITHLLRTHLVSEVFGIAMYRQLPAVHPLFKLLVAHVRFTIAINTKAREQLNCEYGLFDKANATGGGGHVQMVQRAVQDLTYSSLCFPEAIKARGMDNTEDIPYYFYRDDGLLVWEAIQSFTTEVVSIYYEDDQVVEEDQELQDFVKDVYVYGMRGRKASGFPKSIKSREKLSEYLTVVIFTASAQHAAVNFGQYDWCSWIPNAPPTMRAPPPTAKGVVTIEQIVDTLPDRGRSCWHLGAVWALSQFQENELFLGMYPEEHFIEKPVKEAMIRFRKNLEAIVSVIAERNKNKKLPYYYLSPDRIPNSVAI
Nature of the assay: test c) ex vivo assay, oral administration, blood collection, A23187 challenge, radioimmunoassay of LTB4. It is filed as in vivo. Here is the method:
c) An ex vivo assay system, which is a variation of test b) above, involving administration of a test compound (usually orally as the suspension produced when a solution of the test compound in dimethylsulphoxide is added to carboxymethylcellulose), blood collection, heparinisation, challenge with A23187 and radioimmunoassay of LTB4 and TxB2. This test provides an indication of the bioavailability of a test compound as an inhibitor of 5-LO or cyclooxygenase.

pIC50: −log10 of the molar value.

What is called pIC50 is −log10 of the IC50, conventionally taken in molar units. A low value points to a high IC50. As a reminder, the ED50 is the midpoint of the dose-response relation. Read a low ED50 as greater potency. On to `COC1(c2cccc(OCc3ccc4ccccc4c3)c2)CCOCC1` [4-methoxy-4-[3-(naphth-2-ylmethoxy)phenyl]tetrahydropyran], for which the pIC50 in assay [1] was 7.00; in assay [2], < 4.40. For the same compound, it took a dose of 5 mg/kg to reach the 50% effect level in assay [3] (ED50).

The values are drawn from patent publication US5098930A, “Heterocyclic derivatives” (Imperial Chemical Industries PLC, priority 1988, dated 1992).
